From ChEMBL document CHEMBL4257522, “Synthesis and preliminary anti-inflammatory and anti-bacterial evaluation of some diflunisal aza-analogs” (Medchemcomm, 2018)
Activity calls are given as the source filed them. The rule behind the calls is not given here.

How the values were obtained:
[1] = system: Streptococcus pyogenes; assay: Potentiation of geneticin-induced antibacterial activity against Streptococcus pyogenes ATCC 14289 assessed as minimum modulatory concentration up to 32 uM measured after 16 hrs in presence of MIC/4 geneticin; assay type: functional; conditions: ATCC 14289, 16 h, read-out: MEC
[2] = system: Pseudomonas aeruginosa; assay: Potentiation of geneticin-induced antibacterial activity against Pseudomonas aeruginosa ATCC BAA-2108 assessed as minimum modulatory concentration up to 32 uM measured after 16 hrs in presence of MIC/4 geneticin; assay type: functional; conditions: ATCC BAA-2108, 16 h, read-out: MEC
[3] = system: Streptococcus pyogenes; assay: Potentiation of tetracycline-induced antibacterial activity against Streptococcus pyogenes ATCC 14289 assessed as minimum modulatory concentration up to 32 uM measured after 16 hrs in presence of MIC/4 tetracycline; assay type: functional; conditions: ATCC 14289, 16 h, read-out: MEC
[4] = system: Staphylococcus aureus; assay: Potentiation of geneticin-induced antibacterial activity against Staphylococcus aureus ATCC 33592 assessed as minimum modulatory concentration up to 32 uM measured after 16 hrs in presence of MIC/4 geneticin; assay type: functional; conditions: ATCC 33592, 16 h, read-out: MEC
[5] = system: Klebsiella pneumoniae; assay: Potentiation of geneticin-induced antibacterial activity against Klebsiella pneumoniae ATCC 13883 assessed as minimum modulatory concentration up to 32 uM measured after 16 hrs in presence of MIC/4 geneticin; assay type: functional; conditions: ATCC 13883, 16 h, read-out: MEC
[6] = system: Macrophage cell line; assay: Cytotoxicity against human PBMC-differentiated macrophages treated for 24 hrs followed by compound washout and measured after 48 hrs by MTT assay; assay type: cell-based
[7] = system: Enterococcus faecium; assay: Potentiation of methicillin-induced antibacterial activity against Enterococcus faecium ATCC 700221 assessed as minimum modulatory concentration up to 32 uM measured after 16 hrs in presence of MIC/4 methicillin; assay type: functional; conditions: ATCC 700221, 16 h, read-out: MEC
[8] = system: Staphylococcus aureus; assay: Potentiation of ciprofloxacin-induced antibacterial activity against Staphylococcus aureus ATCC 33592 assessed as minimum modulatory concentration up to 32 uM measured after 16 hrs in presence of MIC/4 ciprofloxacin; assay type: functional; conditions: ATCC 33592, 16 h, read-out: MEC
[9] = system: Klebsiella pneumoniae; assay: Potentiation of erythromycin-induced antibacterial activity against Klebsiella pneumoniae ATCC 13883 assessed as minimum modulatory concentration up to 32 uM measured after 16 hrs in presence of MIC/4 erythromycin; assay type: functional; conditions: ATCC 13883, 16 h, read-out: MEC
[10] = system: Enterococcus faecium; assay: Potentiation of erythromycin-induced antibacterial activity against Enterococcus faecium ATCC 700221 assessed as minimum modulatory concentration up to 32 uM measured after 16 hrs in presence of MIC/4 erythromycin; assay type: functional; conditions: ATCC 700221, 16 h, read-out: MEC
[11] = system: Escherichia coli; assay: Potentiation of methicillin-induced antibacterial activity against Escherichia coli ATCC 43894 assessed as minimum modulatory concentration up to 32 uM measured after 16 hrs in presence of MIC/4 methicillin; assay type: functional; conditions: ATCC 43894, 16 h, read-out: MEC
[12] = system: Pseudomonas aeruginosa; assay: Potentiation of erythromycin-induced antibacterial activity against Pseudomonas aeruginosa ATCC BAA-2108 assessed as minimum modulatory concentration up to 32 uM measured after 16 hrs in presence of MIC/4 erythromycin; assay type: functional; conditions: ATCC BAA-2108, 16 h, read-out: MEC
[13] = system: Macrophage cell line; assay: Induction of TNFalpha production in human PBMC-differentiated macrophages after 24 hrs by ELISA; assay type: cell-based
[14] = system: Streptococcus pyogenes; assay: Potentiation of methicillin-induced antibacterial activity against Streptococcus pyogenes ATCC 14289 assessed as minimum modulatory concentration up to 32 uM measured after 16 hrs in presence of MIC/4 methicillin; assay type: functional; conditions: ATCC 14289, 16 h, read-out: MEC
[15] = system: Escherichia coli; assay: Toxicity in Escherichia coli ATCC 43894 up to 32 uM measured after 16 hrs; assay type: organism-based
[16] = system: Escherichia coli; assay: Potentiation of tetracycline-induced antibacterial activity against Escherichia coli ATCC 43894 assessed as minimum modulatory concentration up to 32 uM measured after 16 hrs in presence of MIC/4 tetracycline; assay type: functional; conditions: ATCC 43894, 16 h, read-out: MEC
[17] = system: Pseudomonas aeruginosa; assay: Potentiation of methicillin-induced antibacterial activity against Pseudomonas aeruginosa ATCC BAA-2108 assessed as minimum modulatory concentration up to 32 uM measured after 16 hrs in presence of MIC/4 methicillin; assay type: functional; conditions: ATCC BAA-2108, 16 h, read-out: MEC
[18] = system: Staphylococcus aureus; assay: Potentiation of methicillin-induced antibacterial activity against Staphylococcus aureus ATCC 33592 assessed as minimum modulatory concentration up to 32 uM measured after 16 hrs in presence of MIC/4 methicillin; assay type: functional; conditions: ATCC 33592, 16 h, read-out: MEC
[19] = system: Streptococcus pyogenes; assay: Potentiation of ciprofloxacin-induced antibacterial activity against Streptococcus pyogenes ATCC 14289 assessed as minimum modulatory concentration up to 32 uM measured after 16 hrs in presence of MIC/4 ciprofloxacin; assay type: functional; conditions: ATCC 14289, 16 h, read-out: MEC
[20] = system: Pseudomonas aeruginosa; assay: Toxicity in Pseudomonas aeruginosa ATCC BAA-2108 up to 32 uM measured after 16 hrs; assay type: organism-based; conditions: in vitro
[21] = system: Macrophage cell line; assay: Induction of prostaglandin production in human PBMC-differentiated macrophages after 24 hrs by ELISA; assay type: cell-based
[22] = system: Streptococcus pyogenes; assay: Toxicity in Streptococcus pyogenes ATCC 14289 up to 32 uM measured after 16 hrs; assay type: organism-based
[23] = system: Klebsiella pneumoniae; assay: Potentiation of ciprofloxacin-induced antibacterial activity against Klebsiella pneumoniae ATCC 13883 assessed as minimum modulatory concentration up to 32 uM measured after 16 hrs in presence of MIC/4 ciprofloxacin; assay type: functional; conditions: ATCC 13883, 16 h, read-out: MEC
[24] = system: Klebsiella pneumoniae; assay: Potentiation of tetracycline-induced antibacterial activity against Klebsiella pneumoniae ATCC 13883 assessed as minimum modulatory concentration up to 32 uM measured after 16 hrs in presence of MIC/4 tetracycline; assay type: functional; conditions: ATCC 13883, 16 h, read-out: MEC
[25] = system: Escherichia coli; assay: Potentiation of geneticin-induced antibacterial activity against Escherichia coli ATCC 43894 assessed as minimum modulatory concentration up to 32 uM measured after 16 hrs in presence of MIC/4 geneticin; assay type: functional; conditions: ATCC 43894, 16 h, read-out: MEC
[26] = system: Staphylococcus aureus; assay: Potentiation of tetracycline-induced antibacterial activity against Staphylococcus aureus ATCC 33592 assessed as minimum modulatory concentration up to 32 uM measured after 16 hrs in presence of MIC/4 tetracycline; assay type: functional; conditions: ATCC 33592, 16 h, read-out: MEC
[27] = system: Klebsiella pneumoniae; assay: Potentiation of methicillin-induced antibacterial activity against Klebsiella pneumoniae ATCC 13883 assessed as minimum modulatory concentration up to 32 uM measured after 16 hrs in presence of MIC/4 methicillin; assay type: functional; conditions: ATCC 13883, 16 h, read-out: MEC
[28] = system: Pseudomonas aeruginosa; assay: Potentiation of tetracycline-induced antibacterial activity against Pseudomonas aeruginosa ATCC BAA-2108 assessed as minimum modulatory concentration up to 32 uM measured after 16 hrs in presence of MIC/4 tetracycline; assay type: functional; conditions: ATCC BAA-2108, 16 h, read-out: MEC
[29] = system: Pseudomonas aeruginosa; assay: Potentiation of ciprofloxacin-induced antibacterial activity against Pseudomonas aeruginosa ATCC BAA-2108 assessed as minimum modulatory concentration up to 32 uM measured after 16 hrs in presence of MIC/4 ciprofloxacin; assay type: functional; conditions: ATCC BAA-2108, 16 h, read-out: MEC
[30] = system: Enterococcus faecium; assay: Potentiation of tetracycline-induced antibacterial activity against Enterococcus faecium ATCC 700221 assessed as minimum modulatory concentration up to 32 uM measured after 16 hrs in presence of MIC/4 tetracycline; assay type: functional; conditions: ATCC 700221, 16 h, read-out: MEC
[31] = system: Klebsiella pneumoniae; assay: Toxicity in Klebsiella pneumoniae ATCC 13883 up to 32 uM measured after 16 hrs; assay type: organism-based
[32] = system: Macrophage cell line; assay: Antiinflammatory activity in human PBMC-differentiated macrophages assessed as inhibition of LPS-induced prostaglandin production at 0.01 to 10 uM measured after 24 hrs by ELISA; assay type: functional, cell-based

Row | Compound | minimal effective concentration [1] [µM] | minimal effective concentration [2] [µM] | minimal effective concentration [3] [µM] | minimal effective concentration [4] [µM] | minimal effective concentration [5] [µM] | IC50 [6] [µM] | minimal effective concentration [7] [µM] | minimal effective concentration [8] [µM] | minimal effective concentration [9] [µM] | minimal effective concentration [10] [µM] | minimal effective concentration [11] [µM] | minimal effective concentration [12] [µM] | Activity [13] | minimal effective concentration [14] [µM] | Activity [15] | minimal effective concentration [16] [µM] | minimal effective concentration [17] [µM] | minimal effective concentration [18] [µM] | minimal effective concentration [19] [µM] | Activity [20] | other results
1 | O=C(O)c1cc(-c2ccc(F)cc2F)ncc1O | 8 | > 32 | 8 | 2 | > 32 | 97.3 | 0.25 | 16 | > 32 | 4 | > 32 | 4 | Non-Toxic | 2 | Non-Toxic | > 32 | 8 | 0.5 | > 32 | Non-Toxic | Activity [21]: Non-Toxic; Activity [22]: Non-Toxic; minimal effective concentration [23]: > 32 µM; minimal effective concentration [24]: > 32 µM; minimal effective concentration [25]: > 32 µM; minimal effective concentration [26]: 2 µM; minimal effective concentration [27]: > 32 µM; minimal effective concentration [28]: > 32 µM; minimal effective concentration [29]: 4 µM; minimal effective concentration [30]: 4 µM; Activity [31]: Non-Toxic
2 | O=C(O)c1cc(O)c(-c2ccccc2)nc1-c1ccccc1 | 2 | > 32 | 4 | 8 | > 32 | 92.1 | 1 | 16 | > 32 | 2 | > 32 | 8 | Non-Toxic | 1 | Non-Toxic | > 32 | 16 | 4 | > 32 | Non-Toxic | inhibition [32]: inactive; Activity [21]: Non-Toxic; Activity [22]: Non-Toxic; minimal effective concentration [23]: > 32 µM; minimal effective concentration [24]: > 32 µM; minimal effective concentration [25]: > 32 µM; minimal effective concentration [26]: 8 µM; minimal effective concentration [27]: > 32 µM; minimal effective concentration [28]: > 32 µM; minimal effective concentration [29]: 4 µM; minimal effective concentration [30]: 2 µM; Activity [31]: Non-Toxic
3 | O=C(O)c1cnc2c(F)cc(F)cc2c1O | 4 | > 32 | 4 | 4 | > 32 | 96.5 | 0.25 | 16 | > 32 | 4 | > 32 | 4 | Non-Toxic | 1 | Non-Toxic | > 32 | 8 | 0.5 | > 32 | Non-Toxic | Activity [21]: Non-Toxic; Activity [22]: Non-Toxic; minimal effective concentration [23]: > 32 µM; minimal effective concentration [24]: > 32 µM; minimal effective concentration [25]: > 32 µM; minimal effective concentration [26]: 2 µM; minimal effective concentration [27]: > 32 µM; minimal effective concentration [28]: > 32 µM; minimal effective concentration [29]: 4 µM; minimal effective concentration [30]: 4 µM; Activity [31]: Non-Toxic
4 | O=C(O)c1cc(O)cnc1-c1ccccc1 | 2 | > 32 | 2 | 16 | > 32 | 87.9 | 2 | > 32 | > 32 | 2 | > 32 | 8 | Non-Toxic | 1 | Non-Toxic | > 32 | 16 | 8 | > 32 | Non-Toxic | inhibition [32]: inactive; Activity [21]: Non-Toxic; Activity [22]: Non-Toxic; minimal effective concentration [23]: > 32 µM; minimal effective concentration [24]: > 32 µM; minimal effective concentration [25]: > 32 µM; minimal effective concentration [26]: 1 µM; minimal effective concentration [27]: > 32 µM; minimal effective concentration [28]: > 32 µM; minimal effective concentration [29]: 8 µM; minimal effective concentration [30]: 4 µM; Activity [31]: Non-Toxic
5 | O=C(O)c1ccnc(-c2ccccc2)c1O | 2 | > 32 | 1 | 0.5 | > 32 | > 100 | 1 | 16 | > 32 | 4 | > 32 | 4 | Non-Toxic | 0.5 | Non-Toxic | > 32 | 8 | 0.25 | > 32 | Non-Toxic | inhibition [32]: inactive; Activity [21]: Non-Toxic; Activity [22]: Non-Toxic; minimal effective concentration [23]: > 32 µM; minimal effective concentration [24]: > 32 µM; minimal effective concentration [25]: > 32 µM; minimal effective concentration [26]: 2 µM; minimal effective concentration [27]: > 32 µM; minimal effective concentration [28]: > 32 µM; minimal effective concentration [29]: 4 µM; minimal effective concentration [30]: 2 µM; Activity [31]: Non-Toxic
